The values that follow are results of earlier work, collected in patent US9044417B2, “Mineral, nutritional, cosmetic, pharmaceutical, and agricultural compositions and methods for producing the same” (Core Intellectual Properties Holdings, LLC, priority 2003, dated 2015).

The conditions of the data set: aqueous solutions of glycolic acid, pH=3.0; general statement for comparison.

Regarding `O=C(O)CO` [glycolic acid], the “sting or burning when applied to freshly shaven skin” value is recorded as “will sting or burn”.
